“And” between values parts separate entries of the source, which are not always exact repeats. Identical values can stand only once. “Also recorded” adds a separate entry of the source.
Experiments:
[1] = Stability of F8: nitrosamine content after 12 months storage; type: physicochemical; conditions: for growth of nitrosamine-content upon storage / change of nitrosamine-content upon storage: 12M; for Nitrosamine content in F8: double polyethylene-bags
Method: (§1) • Limit-test by LC-MS (SIM mode), AJS-ES, positive mode, SIM Ion: 483.2 [M+H]+ • Column: YMC-Triart C18, 100×3.0 mm, particle size 1.9 μm, 12 nm • Mobile phase A: Dissolve 0.315 g of Ammonium formate in 1000 ml of water, add 0.5 ml of formic acid • Mobile phase B: Methanol • Sample solvent: Methanol+0.2% (v/v) Formic acid • Sample solution: approx. 100 mg of the sample in 20 mL • Flow: 0.6 mL/min • Injection volume: 3 μL • Autosampler cooled, 8° C. • Column temperature. 80° C. • Gradient: […]
(§2) The impact of protective gas (nitrogen) for storage vs storage in non-protected atmosphere, of light exposed vs dark conditions and the effect of temperature was investigated. In addition, the stability study samples pulled after 12 M of storage at different temperature and humidity were included into the assessment.

[2] = Stability of intermediate F8: nitrosamine content upon air exposure; type: physicochemical
Method: as §1

[3] = Additional stress testing of F8 (inert gas, open vial, light); type: physicochemical; conditions: for formation of nitrosamine upon storage: several days, room temperature
Excerpt: as §2

[4] = Accelerated predictive stability (APS) of LOU064 drug substance, open dish; type: physicochemical; conditions: for Nitrosamine impurity: open dish
Method: as §1, with “0.5 mL” for “0.5 ml”
A statistical based approach, Accelerated Predictive Stability (APS), using the humidity modified Arrhenius equation [Waterman and al., International Journal of Pharmaceutics 293 (1-2), 101-125 (2005)] is applied to understand stability behavior and predict the retest period. […] Short studies are conducted on open dish samples of representative batch(es) of drug substance at accelerated conditions using a wide range of temperatures and humidity with the goal of reaching the specification limit for the identified retest period limiting attributes at each condition as detailed below. […] The humidity corrected Arrhenius equation reflects both the influence of the temperature, and the moisture on the kinetics of the degradation product formation. The resulting open-dish data are fitted to a humidity-corrected Arrhenius equation^1 using ASAPprime® (current version 6.0): […]
3 batches of LOU064 drug substance were placed in open dish under the protocol summarized below:
(§3) The pulled samples were analyzed by HPLC-MS as per method described in example 1 and reported below in tables 8 and 9.

[5] = APS of LOU064 drug substance, closed vessel with or without nitrogen purge; type: physicochemical
Method: as §1, with “0.5 mL” for “0.5 ml”
Samples of batches of LOU064 drug substance were prepared in duplicated in closed container, with one sample being purged with nitrogen and the other not.
as §3

[6] = system: Salmonella typhimurium strain TA98; assay: Enhanced Ames Test (EAT), strain TA98; conditions: TA98, presence of hamster S-9
Method: (§4) N-(3-(6-amino-5-(2(methyl)(nitroso)amino)ethoxy)pyrimidin-4-yl)-5-fluoro-2-methylphenyl)-4-cyclopropyl-2-fluorobenzamide was evaluated in the EAT performed under GLP following the EMA and FDA guidance (2023) for the EAT conditions for N-nitrosamines.
(§5) In this study N-(3-(6-amino-5-(2(methyl)(nitroso)amino)ethoxy)pyrimidin-4-yl)-5-fluoro-2-methylphenyl)-4-cyclopropyl-2-fluorobenzamide was evaluated for mutations in Salmonella typhimurium strains TA98, TA100, TA1535 and TA1537 and Escherichia coli strain WP2 uvrA pKM101, both in the absence and presence of 30% rat and hamster metabolic activation (β-naphthoflavone/phenobarbital-induced rat and hamster liver post-mitochondrial S-9 fraction). The test used pre-incubation method (30 minutes). N-(3-(6-amino-5-(2(methyl)(nitroso)amino)ethoxy)pyrimidin-4-yl)-5-fluoro-2-methylphenyl)-4-cyclopropyl-2-fluorobenzamide was formulated in dimethyl sulfoxide (DMSO) at concentrations of 5, 16, 50, 160, 500, 1600 and 5000 μg/plate.
(§6) Following the recommendations of the EAT, in addition to the concurrent strain-specific positive controls, two nitrosamine positive controls, i.e. N-nitrosodiethylamine (NDEA) and N-methyl-N-nitroso-(2-phenylethyl)amine (MNPA) were used that are known to be mutagenic in the presence of S-9.

[7] = system: Salmonella typhimurium strain TA1535; assay: Enhanced Ames Test (EAT), strain TA1535; conditions: TA1535, presence of hamster S-9
Method: as §4, §5, §6

[8] = Formulation analyses of EAT dosing formulations in DMSO; type: physicochemical; conditions: 6 hrs at room temperature
[9] = system: Salmonella typhimurium strain TA100; assay: Enhanced Ames Test (EAT), strain TA100
Method: as §4, §5, §6

[10] = system: Salmonella typhimurium strains TA98, TA100, TA1535 and TA1537 and Escherichia coli strain WP2 uvrA pKM101; assay: Enhanced Ames Test (EAT), all tester strains; type: cell-based
Method: The test used pre-incubation method (30 minutes).

CNCCOc1c(N)ncnc1-c1cc(F)cc(NC(=O)c2ccc(C3CC3)cc2F)c1C [F8]
growth of nitrosamine-content upon storage ([1]; 30° C./65% RH): > 100% | growth of nitrosamine-content upon storage ([1]; 40° C./75% RH): > 100% | change of nitrosamine-content upon storage ([1]; cold (5° C.)): only a minor rise | change of nitrosamine-content upon storage ([1]; frozen (−20° C.)): no increase | Nitrosamine content in F8 ([1]; 12 months, 5° C.): 323 ppb | Nitrosamine content in F8 ([1]; 12 months, 30° C., 65% RH): 595 ppb | Nitrosamine content in F8 ([1]; 12 months, 40° C., 75% RH): 647 ppb | Nitrosamine content in F8 ([1]; 12 months, −20° C.): 276 ppb | Nitrosamine content in F8 ([1]; T0): 300 ppb | Nitrosamine in F8 ([2]; Analyzed after 52 h air exp.): 533 ppb | Nitrosamine in F8 ([2]; Analyzed directly after weighting the sample): 86 ppb | effect of exposure to light on nitrosamine formation ([3]; light exposed vs dark): slightly accelerate conversion of F8 into nitrosamine | formation of nitrosamine upon storage ([3]; open vial): rapid increase | formation of nitrosamine upon storage ([3]; stored under inert gas): only a minor, yet constant formation of nitrosamine

C=CC(=O)N(C)CCOc1c(N)ncnc1-c1cc(F)cc(NC(=O)c2ccc(C3CC3)cc2F)c1C [LOU064 drug substance, N-(3-(6-Amino-5-(2-(N-methylacrylamido)ethoxy)pyrimidin-4-yl)-5-fluoro-2-methylphenyl)-4-cyclopropyl-2-fluorobenzamide]
stability behavior of the nitrosamine impurity ([4]; all APS open dish conditions): stable | Nitrosamine impurity ([4]; 50° C., 75% RH, 14 days): 74.9 ppb | Nitrosamine impurity ([4]; 50° C., 75% RH, 21 days): 75.8 ppb | Nitrosamine impurity ([4]; 50° C., 75% RH, 28 days): 106.5 ppb and 106.8 ppb | Nitrosamine impurity ([4]; 60° C., 11% RH, 21 days): 87.1 ppb | Nitrosamine impurity ([4]; 60° C., 11% RH, 28 days): 113.5 ppb | Nitrosamine impurity ([4]; 60° C., 50% RH, 14 days): 77.0 ppb | Nitrosamine impurity ([4]; 60° C., 50% RH, 28 days): 106.6 ppb | Nitrosamine impurity ([4]; 60° C., 75% RH, 14 days): 69.8 ppb | Nitrosamine impurity ([4]; 60° C., 75% RH, 21 days): 82.7 ppb | Nitrosamine impurity ([4]; 60° C., 75% RH, 28 days): 119.1 ppb | Nitrosamine impurity ([4]; 70° C., 31% RH, 14 days): 77.9 ppb | Nitrosamine impurity ([4]; 70° C., 31% RH, 28 days): 113.3 ppb | Nitrosamine impurity ([4]; 70° C., 50% RH, 21 days): 83.2 ppb | Nitrosamine impurity ([4]; 70° C., 50% RH, 28 days): 108.3 ppb | Nitrosamine impurity ([4]; 70° C., 75% RH, 14 days): 82.6 ppb | Nitrosamine impurity ([4]; 70° C., 75% RH, 21 days): 83.2 ppb | Nitrosamine impurity ([4]; 80° C., 51% RH, 7 days): 105.3 ppb | Nitrosamine impurity ([4]; 80° C., 51% RH, 21 days): 75.5 ppb | Nitrosamine impurity ([4]; initial, 0 days): 99.1 ppb | nitrosamine, stored closed under nitrogen versus closed without nitrogen ([5]; 60-80° C., up to 27 days): no difference observed beyond analytical variability | Nitrosamine without Nitrogen purge ([5]; 60° C., 21 days): 72.5 ppb | nitrosamine with Nitrogen purge ([5]; 60° C., 21 days): 86.5 ppb | Nitrosamine without Nitrogen purge ([5]; 60° C., 27 days): 109.8 ppb | nitrosamine with Nitrogen purge ([5]; 60° C., 27 days): 110.4 ppb | Nitrosamine without Nitrogen purge ([5]; 70° C., 21 days): 67.0 ppb | nitrosamine with Nitrogen purge ([5]; 70° C., 21 days): 76.6 ppb | Nitrosamine without Nitrogen purge ([5]; 70° C., 27 days): 116.0 ppb | nitrosamine with Nitrogen purge ([5]; 70° C., 27 days): 109.4 ppb | Nitrosamine without Nitrogen purge ([5]; 80° C., 21 days): 59.6 ppb | nitrosamine with Nitrogen purge ([5]; 80° C., 21 days): 54.8 ppb | Nitrosamine without Nitrogen purge ([5]; 80° C., 27 days): 114.7 ppb | nitrosamine with Nitrogen purge ([5]; 80° C., 27 days): 119.2 ppb | Nitrosamine without Nitrogen purge ([5]; initial, 0 days): 99.1 ppb | nitrosamine with Nitrogen purge ([5]; initial, 0 days): 99.1 ppb

CN(CCc1ccccc1)N=O [MNPA, N-methyl-N-nitroso-(2-phenylethyl)amine]
increase in revertant numbers [6]: up to 1.9 fold

Cc1c(NC(=O)c2ccc(C3CC3)cc2F)cc(F)cc1-c1ncnc(N)c1OCCN(C)N=O [N-(3-(6-amino-5-(2(methyl)(nitroso)amino)ethoxy)pyrimidin-4-yl)-5-fluoro-2-methylphenyl)-4-cyclopropyl-2-fluorobenzamide]
increase in revertant numbers [7]: ≥ 3 fold | stability and homogenicity in the formulations [8]: demonstrated stability and homogenicity | increase in revertant numbers ([9]; TA100, presence of hamster S-9): ≥ 2 fold | mutagenicity in the presence of rat S-9 ([10]; 30% rat S-9): not mutagenic | Enhanced Ames Test (EAT) result ([10]; GLP, EMA and FDA guidance (2023) EAT conditions for N-nitrosamines, pre-incubation 30 minutes, 5-5000 μg/plate): positive; also recorded: mutagenic under sensitive metabolic conditions | mutagenicity without metabolic activation ([10]; absence of S-9): not mutagenic | Precipitation observed at ([10]; all tester strains, absence and presence of S-9, formulated in DMSO): 1600 μg/plate and/or 5000 μg/plate

CCN(CC)N=O [NDEA, N-nitrosodiethylamine, reference compound]
increase in revertant numbers ([9]; TA100, presence of 30% rat S-9): > 2 fold

Source: patent US20250243170A1, “REMIBRUTINIB DRUG SUBSTANCE AND DRUG PRODUCT SUBSTANTIALLY FREE OF NITROSAMINE IMPURITY” (NOVARTIS AG, priority 2024, published 2025)
